Values joined by “and” are separate entries in the source; they are usually repeats but may differ in a detail not shown here. Equal entries are not always repeated. Inconclusive results and toxic doses are left out. No stated cut-off is given here; in the data, active means T/C of 150% or more; inactive means T/C below 125%.
Tested on: L1210 leukemia ip in BDF1 mice, survival T/C
Experiment: NCI In Vivo Anticancer Drug Screen. Data for tumor model L1210 Leukemia (intraperitoneal) in B6D2F1 (BDF1) mice
Conditions: endpoint: mean survival time, higher = longer survival
Outline: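 Transplanted-tumor mice were given test agent; controls received vehicle only. Survival readings from the two groups were divided (treated over control).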

[1] = dose: 100.0 mg/kg/injection, schedule: Q01DX001 (ip), vehicle: saline with Tween-80
[2] = dose: 200.0 mg/kg/injection, schedule: Q01DX001 (ip), vehicle: saline with Tween-80
[3] = dose: 400.0 mg/kg/injection, schedule: Q01DX001 (ip), vehicle: saline with Tween-80
[4] = dose: 100.0 mg/kg/injection, schedule: Q01DX009 (ip), vehicle: Klucel (hydroxypropylcellulose) (HPC)
[5] = dose: 200.0 mg/kg/injection, schedule: Q01DX009 (ip), vehicle: Klucel (hydroxypropylcellulose) (HPC)
[6] = dose: 400.0 mg/kg/injection, schedule: Q01DX009 (ip), vehicle: Klucel (hydroxypropylcellulose) (HPC)
[7] = dose: 200.0 mg/kg/injection, schedule: Q04DX002 (ip), vehicle: Klucel (hydroxypropylcellulose) (HPC)
[8] = dose: 400.0 mg/kg/injection, schedule: Q04DX002 (ip), vehicle: Klucel (hydroxypropylcellulose) (HPC)
[9] = dose: 100.0 mg/kg/injection, schedule: Q04DX003 (ip), vehicle: saline
[10] = dose: 200.0 mg/kg/injection, schedule: Q04DX003 (ip), vehicle: saline
[11] = dose: 15.0 mg/kg/injection, schedule: Q01DX Z (ip), vehicle: carboxymethylcellulose (CMC)
[12] = dose: 30.0 mg/kg/injection, schedule: Q01DX Z (ip), vehicle: carboxymethylcellulose (CMC)
[13] = dose: 60.0 mg/kg/injection, schedule: Q01DX Z (ip), vehicle: carboxymethylcellulose (CMC)
[14] = dose: 100.0 mg/kg/injection, schedule: Q04DX002 (ip), vehicle: saline with Tween-80
[15] = dose: 200.0 mg/kg/injection, schedule: Q04DX002 (ip), vehicle: saline with Tween-80
[16] = dose: 100.0 mg/kg/injection, schedule: Q04DX002 (ip), vehicle: Klucel (hydroxypropylcellulose) (HPC)
[17] = dose: 50.0 mg/kg/injection, schedule: Q01DX009 (ip), vehicle: Klucel (hydroxypropylcellulose) (HPC)
[18] = dose: 100.0 mg/kg/injection, schedule: Q04DX003 (ip), vehicle: saline with Tween-80
[19] = dose: 200.0 mg/kg/injection, schedule: Q04DX003 (ip), vehicle: saline with Tween-80
[20] = dose: 400.0 mg/kg/injection, schedule: Q04DX003 (ip), vehicle: saline with Tween-80

Measured: T/C

COC(=O)c1ccc(N(C)C/C(CNc2nc(NC(C)=O)nc(SCc3ccccc3)c2[N+](=O)[O-])=N/O)cc1
inactive: [1] 92 % of control | [2] 86 % of control | [3] 96 % of control

CC(=O)c1cccc(NC(=O)Nc2ccc(CCO)cc2)c1
inactive: [4] 95 % of control | [5] 95 % of control | [6] 100 % of control

O=C(O)c1ccccc1S(=O)O
inactive: dose: 50.0 mg/kg/injection, schedule: Q04DX002 (ip), vehicle: other 119 % of control | dose: 100.0 mg/kg/injection, schedule: Q04DX002 (ip), vehicle: other 122 % of control | [7] 89 % of control | dose: 200.0 mg/kg/injection, schedule: Q04DX002 (ip), vehicle: other 91 % of control | [8] 103 % of control

O=C1C=CC(=O)N1c1ccc(F)cc1 (tested in a mixture with another compound)
inactive: dose: 100.0 mg/kg/injection, schedule: Q04DX003 (ip), vehicle: acetone 86 % of control | dose: 100.0 mg/kg/injection, schedule: Q04DX003 (ip), vehicle: other 97 % of control | dose: 200.0 mg/kg/injection, schedule: Q04DX003 (ip), vehicle: acetone 86 % of control | dose: 200.0 mg/kg/injection, schedule: Q04DX003 (ip), vehicle: other 86 % of control | dose: 400.0 mg/kg/injection, schedule: Q04DX003 (ip), vehicle: other 87 % of control and 95 % of control

C/C(=N/N(C)C)c1cccc(C(F)(F)F)c1
inactive: [9] 98 % of control | [10] 116 % of control

CCOC(=O)CSC(=S)N1CCOCC1
inactive: dose: 100.0 mg/kg/injection, schedule: Q01DX001 (ip), vehicle: Klucel (hydroxypropylcellulose) (HPC) 94 % of control | dose: 200.0 mg/kg/injection, schedule: Q01DX001 (ip), vehicle: Klucel (hydroxypropylcellulose) (HPC) 97 % of control | dose: 400.0 mg/kg/injection, schedule: Q01DX001 (ip), vehicle: Klucel (hydroxypropylcellulose) (HPC) 102 % of control

CC(=N/NC(N)=S)/C(C)=N/NC(N)=S
inactive: [11] 97 % of control | [12] 97 % of control | dose: 50.0 mg/kg/injection, schedule: Q01DX001 (ip), vehicle: carboxymethylcellulose (CMC) 95 % of control | [13] 101 % of control and 91 % of control | dose: 100.0 mg/kg/injection, schedule: Q01DX001 (ip), vehicle: carboxymethylcellulose (CMC) 87 % of control | dose: 100.0 mg/kg/injection, schedule: Q01DX001 (ip), vehicle: saline 110 % of control | dose: 100.0 mg/kg/injection, schedule: Q01DX009 (ip), vehicle: saline 91 % of control | [9] 98 % of control | dose: 120.0 mg/kg/injection, schedule: Q01DX Z (ip), vehicle: carboxymethylcellulose (CMC) 95 % of control | dose: 200.0 mg/kg/injection, schedule: Q01DX001 (ip), vehicle: carboxymethylcellulose (CMC) 87 % of control | dose: 200.0 mg/kg/injection, schedule: Q01DX001 (ip), vehicle: saline 106 % of control | dose: 200.0 mg/kg/injection, schedule: Q01DX009 (ip), vehicle: saline 88 % of control | [10] 86 % of control | dose: 240.0 mg/kg/injection, schedule: Q01DX Z (ip), vehicle: carboxymethylcellulose (CMC) 93 % of control | dose: 240.0 mg/kg/injection, schedule: Q01DX Z (oral), vehicle: carboxymethylcellulose (CMC) 105 % of control | dose: 400.0 mg/kg/injection, schedule: Q01DX001 (ip), vehicle: carboxymethylcellulose (CMC) 89 % of control | dose: 400.0 mg/kg/injection, schedule: Q01DX001 (ip), vehicle: saline 101 % of control | dose: 400.0 mg/kg/injection, schedule: Q01DX009 (ip), vehicle: saline 93 % of control | dose: 400.0 mg/kg/injection, schedule: Q04DX003 (ip), vehicle: saline 91 % of control | dose: 480.0 mg/kg/injection, schedule: Q01DX Z (ip), vehicle: carboxymethylcellulose (CMC) 87 % of control | dose: 480.0 mg/kg/injection, schedule: Q01DX Z (oral), vehicle: carboxymethylcellulose (CMC) 102 % of control | dose: 960.0 mg/kg/injection, schedule: Q01DX Z (oral), vehicle: carboxymethylcellulose (CMC) 102 % of control | dose: 1920.0 mg/kg/injection, schedule: Q01DX Z (oral), vehicle: carboxymethylcellulose (CMC) 111 % of control

N#CCCOCC[CH2][Sn]([c]1ccccc1)([c]1ccccc1)[c]1ccccc1
inactive: [14] 94 % of control | [15] 94 % of control | dose: 400.0 mg/kg/injection, schedule: Q04DX002 (ip), vehicle: saline with Tween-80 91 % of control

O=C1CC(Sc2ccccc2)C(=O)N1c1ccccc1 (stereo unspecified)
inactive: [4] 104 % of control | [5] 100 % of control | [6] 107 % of control

CC(=NC1CCCCC1)Nc1ccc(NC(=O)c2ccc(C(=O)Nc3ccc(NC(C)=NC4CCCCC4)cc3)cc2)cc1
inactive: [11] 92 % of control | [12] 93 % of control | [13] 96 % of control

NNC(=O)CNc1ccc(Br)cc1F
inactive: [16] 104 % of control | [7] 115 % of control

[N-]=[N+]=Nc1ccc(C(=O)NCc2cnc(N)nc2N)cc1
inactive: [14] 98 % of control

c1ccc(-c2nnnn2-c2ccccc2)cc1
inactive: [1] 102 % of control | [2] 98 % of control | [3] 105 % of control

CCOC(=O)CSc1ccc([N+](=O)[O-])cc1Cl
inactive: [4] 102 % of control | [16] 96 % of control and 101 % of control | [5] 106 % of control | [7] 104 % of control and 106 % of control | [6] 104 % of control | [8] 95 % of control and 101 % of control

COC1OC2COc3ccccc3OC2C2C1N2C(N)=S (stereo unspecified)
inactive: dose: 100.0 mg/kg/injection, schedule: Q04DX002 (ip), vehicle: saline 96 % of control | dose: 200.0 mg/kg/injection, schedule: Q04DX002 (ip), vehicle: saline 100 % of control | dose: 400.0 mg/kg/injection, schedule: Q04DX002 (ip), vehicle: saline 100 % of control

CC1CCC(C(C)C)C(N(C)Cc2cc(Br)cc(Br)c2O)C1 (stereo unspecified)
inactive: [17] 102 % of control | [4] 107 % of control | [18] 104 % of control | [5] 105 % of control | [19] 104 % of control | [20] 98 % of control

CC1(C)C(=O)C=C(N2CCCCC2)c2ccccc21
inactive: [18] 101 % of control | [19] 98 % of control | [20] 97 % of control

C=CC(C)C1CCC2(C)C3=C(C(=O)CC12C)C1(C)CCC(OC(C)=O)C(C)(C)C1=C(OC(C)=O)C3=O (stereo unspecified)
inactive: [18] 91 % of control | [19] 91 % of control | [20] 87 % of control

Cc1nc2[nH]c(=S)[nH]c(=O)c2nc1C
inactive: dose: 16.0 mg/kg/injection, schedule: Q01DX Z (ip), vehicle: methylcellulose (MC) 95 % of control | dose: 31.0 mg/kg/injection, schedule: Q01DX Z (ip), vehicle: methylcellulose (MC) 119 % of control | dose: 62.0 mg/kg/injection, schedule: Q01DX Z (ip), vehicle: methylcellulose (MC) 89 % of control | dose: 125.0 mg/kg/injection, schedule: Q01DX Z (ip), vehicle: methylcellulose (MC) 95 % of control and 101 % of control | dose: 250.0 mg/kg/injection, schedule: Q01DX Z (ip), vehicle: methylcellulose (MC) 112 % of control | dose: 500.0 mg/kg/injection, schedule: Q01DX Z (ip), vehicle: methylcellulose (MC) 89 % of control

COC(OC)(/C(Cl)=C(\Cl)c1ccccc1)c1ccccc1
inactive: [14] 94 % of control | [15] 88 % of control

CC1(C)CCC(C#N)=C1N
inactive: dose: 12.5 mg/kg/injection, schedule: Q01DX009 (ip), vehicle: saline with Tween-80 93 % of control | dose: 25.0 mg/kg/injection, schedule: Q01DX009 (ip), vehicle: saline with Tween-80 105 % of control | dose: 50.0 mg/kg/injection, schedule: Q01DX009 (ip), vehicle: saline with Tween-80 88 % of control

CN(C)n1cc(C#N)c(=O)[nH]c1=O
inactive: [17] 90 % of control | [4] 90 % of control | dose: 100.0 mg/kg/injection, schedule: Q04DX003 (ip), vehicle: Klucel (hydroxypropylcellulose) (HPC) 100 % of control | [5] 100 % of control | dose: 200.0 mg/kg/injection, schedule: Q04DX003 (ip), vehicle: Klucel (hydroxypropylcellulose) (HPC) 97 % of control

— PubChem BioAssay AID248 (DTP/NCI, 2004)
